Consider 7 compounds from PMC9960553, ““Dual Anta-Inhibitors” of the A2A Adenosine Receptor and Casein Kinase CK1delta: Synthesis, Biological Evaluation, and Molecular Modeling Studies” (Pharmaceuticals, 2023).

Where two headings read alike, the source gives them in different places. A value given as a limit tells only on which side of the number the result lay.

Data set [1] relates to CK1δ/ε. The settings on record: read-out: IC50 as CK1δ/ε inhibitor; cited from earlier work.
Data set [2] relates to CDK5. Also on record: method as in PMID 18698753, PMID 29289448. The settings on record: cited from earlier work.
In data set [3] the target is T1, truncated CK1δ (Homo sapiens, UniProt P48730).
T1 construct: recombinant human, GST-tagged, aa 1-294; GST; purchased Merck Millipore, Merck KGaA, Darmstadt, Germany
T1 sequence (P48730 1-294): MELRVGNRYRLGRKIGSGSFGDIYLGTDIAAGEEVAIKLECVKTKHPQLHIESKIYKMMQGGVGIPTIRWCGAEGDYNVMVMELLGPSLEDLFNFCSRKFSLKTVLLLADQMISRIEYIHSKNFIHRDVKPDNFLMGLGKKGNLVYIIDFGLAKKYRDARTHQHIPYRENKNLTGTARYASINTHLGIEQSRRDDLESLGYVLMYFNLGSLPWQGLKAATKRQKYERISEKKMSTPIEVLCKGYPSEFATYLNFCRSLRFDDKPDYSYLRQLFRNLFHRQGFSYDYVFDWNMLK
Description: CK1δ luminescent kinase assay (Kinase-Glo). In kind it is biochemical. The following applies: for remaining activity at 10 µM / remaining activity at 40 µM: CK1δ residual activity; for remaining activity at 10 µM: compound at 10 μM, read-out: % Residual Activity at 10 μM ± sd; for remaining activity at 40 µM: compound at 40 μM, read-out: % Residual Activity at 40 μM ± sd; for IC50: truncated CK1δ, ATP 2 μM, read-out: IC50 (μM), CK1δ inhibition. How it is done: Luminescent assays were performed in white 96-well plates in a 40 μL final volume with buffer containing 50 mM HEPES (pH 7.5), 1 mM EDTA, 1 mM EGTA, and 15 mM MgCl2. In a typical assay, 10 μL of inhibitor solution (desired concentrations were obtained by diluting a starting 10 mM solution in DMSO) and 10 μL of enzyme solution were added to the well, followed by 20 μL of assay buffer containing casein substrate (Sigma-Aldrich, Merck KGaA, Darmstadt, Germany, casein solution from bovine milk, 5% in water) and ATP, at a final concentration of 0.05% and 2 μM, respectively. […] After 60 min of incubation at 30 °C, the enzymatic reactions were stopped with the addition of 40 μL of KinaseGlo reagent. […] Data were analyzed using Excel and GraphPad Prism software (version 8.0).
In general terms: Kinase-Glo measures the ATP left after a reaction by luminescence.

The target of data set [4] is T2, human recombinant A2AAR (Homo sapiens, UniProt P29274).
T2 construct: expressed in transfected cells; host or cells: CHO cells (membranes)
T2 sequence (P29274 whole entry): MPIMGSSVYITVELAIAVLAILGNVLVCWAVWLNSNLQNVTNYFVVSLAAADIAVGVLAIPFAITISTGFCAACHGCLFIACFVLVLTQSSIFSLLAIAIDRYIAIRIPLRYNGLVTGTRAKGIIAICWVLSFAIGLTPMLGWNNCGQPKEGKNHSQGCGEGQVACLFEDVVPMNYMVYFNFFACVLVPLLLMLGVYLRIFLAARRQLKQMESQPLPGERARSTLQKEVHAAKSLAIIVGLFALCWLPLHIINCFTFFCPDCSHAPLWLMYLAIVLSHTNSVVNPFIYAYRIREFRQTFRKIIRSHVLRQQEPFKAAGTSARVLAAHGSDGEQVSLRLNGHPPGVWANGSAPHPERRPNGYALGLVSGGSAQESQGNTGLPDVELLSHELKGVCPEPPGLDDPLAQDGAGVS
The settings on record: read-out: KiA2AAR; cited from earlier work.

Data set [5] has as its target T3, human recombinant A1AR (Homo sapiens, UniProt P30542).
T3 construct: expressed in transfected cells; host or cells: CHO cells (membranes)
T3 sequence (P30542 1-326): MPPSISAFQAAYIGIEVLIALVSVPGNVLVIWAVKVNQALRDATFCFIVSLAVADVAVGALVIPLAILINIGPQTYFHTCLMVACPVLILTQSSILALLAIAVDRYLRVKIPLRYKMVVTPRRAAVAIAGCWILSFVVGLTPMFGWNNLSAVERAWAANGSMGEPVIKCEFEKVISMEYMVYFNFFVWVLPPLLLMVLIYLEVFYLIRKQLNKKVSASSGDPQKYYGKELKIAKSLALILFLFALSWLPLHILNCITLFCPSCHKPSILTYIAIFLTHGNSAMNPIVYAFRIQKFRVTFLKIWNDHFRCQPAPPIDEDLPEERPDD
Kind of data set: [3H]CCPA displacement binding in CHO cell membranes. The following applies: mean ± standard error, read-out: KiA1. The method, then:
(§1) Compounds 5, 6, 8–12, 15–21, and 23–25 were evaluated in binding studies at human recombinant A1, A2A, and A3 ARs, stably transfected in Chinese hamster ovary (CHO) cells. [^3H]CCPA (2-chloro-N^6-cyclopentylAdo), [^3H]NECA (5’-N-ethylcarboxamidoAdo), and [^3H]HEMADO (2-hexynyl-N^6-methylAdo) were used as the, respective, radioligands. All compounds were also tested at the A2BARs by inhibition of NECA-stimulated adenylyl cyclase activity, using the GloSensor cAMP assay, but none of them were active at a concentration up to 30 μM [35]. The results, together with the data of the reference adenine derivative 1, are reported in Table 2 as Ki values in μM (± standard errors). In the table, the IC50 values (μM) of the CK1δ inhibitory activity are also indicated. […] We called the compounds endowed with receptor antagonist behavior combined with an enzyme inhibitory activity “dual anta-inhibitors”.
(§2) All of the pharmacological methods followed the procedures as described earlier. In brief, the membranes for radioligand binding were prepared from CHO cells stably transfected with human adenosine receptor subtypes through two centrifugations at different speeds. The first low-speed […] centrifugation allowed for the removal of cell fragments and nuclei, while the second, performed at high speed (100,000× g), allowed for the precipitation of the crude membrane fractions. The resulting membrane pellet was resuspended in the buffer used for the respective binding experiments, frozen in liquid nitrogen, and stored in aliquots at −80 °C.
(§3) The binding affinity of the novel compounds was evaluated using radioligand competition experiments in CHO cells stably expressing hA1AR, hA2AAR, hA3AR subtypes, as early described. Results were expressed as Ki values (dissociation constants), which were calculated with the program GraphPad (GraphPad Software, San Diego, CA, USA). Each concentration was tested three–five times in duplicate and the values given as the mean ± standard error (S.E.). The potency of compounds at the hA2BAR (expressed on CHO cells) was determined through a GloSensor cAMP Assay.

Data set [6] has as its target T2, human recombinant A2AAR. Kind of data set: [3H]NECA displacement binding in CHO cell membranes. The settings on record: mean ± standard error, read-out: KiA2A. The method, then:
as §1, §2, §3

Data set [7] concerns the target T4, human recombinant A3AR (Homo sapiens, UniProt P0DMS8).
T4 construct: expressed in transfected cells; host or cells: CHO cells (membranes)
T4 sequence (P0DMS8 1-318): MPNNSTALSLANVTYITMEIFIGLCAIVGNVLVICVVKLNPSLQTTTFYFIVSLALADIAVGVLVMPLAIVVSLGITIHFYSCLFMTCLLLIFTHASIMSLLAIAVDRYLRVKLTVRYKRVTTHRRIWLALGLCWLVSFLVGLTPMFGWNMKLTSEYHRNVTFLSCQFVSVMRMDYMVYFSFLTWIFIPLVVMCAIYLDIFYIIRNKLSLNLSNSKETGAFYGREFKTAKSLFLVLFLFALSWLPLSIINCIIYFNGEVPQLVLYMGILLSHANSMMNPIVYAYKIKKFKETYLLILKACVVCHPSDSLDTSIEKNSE
Description: [3H]HEMADO displacement binding in CHO cell membranes. The settings on record: mean ± standard error, read-out: KiA3. The method, then: as §1, §2, §3

In data set [8] the target is T5, hA2AAR (Homo sapiens, UniProt P29274).
T5 construct: expressed in transfected cells; host or cells: CHO cells stably expressing hA2AAR and pGloSensor-22F
T5 sequence (P29274 whole entry): as the sequence (P29274 whole entry) above
Description: Antagonism of NECA-induced cAMP accumulation in CHO cells, GloSensor cAMP assay. In kind it is cell-based. The settings on record: CHO cells stably expressing hA2AAR; read-out: IC50, inhibition of NECA effect on cAMP production. How it is done: In order to confirm the antagonist activity of the dual anta-inhibitors 12 and 17, they were evaluated in a functional assay in CHO cells stably expressing the hA2AAR. Firstly, they were tested alone, and […] in terms of cAMP stimulation was observed. […] Both 12 and 17 were able to inhibit the effect of NECA on cAMP production, thus resulting in A2AAR antagonists.
Functional activity was determined as described earlier. Briefly, cells stably expressing both the hA2A or hA2B AR and the plasmid pGloSensor-22F coding for the biosensor were cultured. This biosensor encodes for a genetically modified form of firefly luciferase into which a cAMP-binding protein moiety was inserted. The desiderate cell number was harvested and incubated for 2 h at r.t., with 3% v/v GloSensor cAMP reagent stock solution, 10% FBS, and 87% CO2 independent medium. Cells were dispensed in the wells of a 384-well plate and the reference agonist NECA or the under-study compounds were added at different concentrations. Since the compounds were unable to stimulate cAMP production, they were studied as antagonists. The antagonist profile was evaluated by assessing the ability to counteract an NECA-induced increase in cAMP accumulation. Responses were expressed as a percentage of the maximal relative luminescence units (RLU). Concentration–response curves were fitted by a nonlinear regression using Prism software. […]
(In general: Cyclic AMP is a second messenger, typically raised through Gs and lowered through Gi signalling.)

Data set [9] deals with CK1δ. The following applies: cited from earlier work.
For data set [10], the system named is CK1ε. The settings on record: cited from earlier work.

Regarding `CC[C@H](CO)Nc1nc(Nc2ccc(-c3cccnc3)cc2)c2ncn(C(C)C)c2n1` [(R)-DRF053], the results for the IC50 in data set [1] and in data set [2] were 0.014 µM and 0.08 µM, respectively.
For `CCn1cnc2c(N)nc(Cl)nc21` [Compound 3], in data set [3], the remaining activity at 10 µM was 71%, the remaining activity at 40 µM was found to be 41% and the IC50 is over 10 µM. Further, the Ki in [4] was 3 µM.
As to `CN(C)c1nc(N)c2ncn(C3CCCC3)c2n1` [Compound 12, 9-Cyclopentyl-N^2,N^2-dimethyl-9H-purine-2,6-diamine], the remaining activity at 10 µM in data set [3] was determined as 27 ± 4%. Moreover, the remaining activity at 40 µM in data set [3] was 19 ± 9.4%. In addition, the IC50 in [3] was 1.75 ± 0.2 µM; in data set [8], 0.418 ± 0.098 µM. Further, the results for the Ki in data set [5], in data set [6] and in data set [7] were 3.34 ± 0.658 µM, 0.123 ± 0.002 µM and 2.88 ± 0.695 µM, respectively.
As to `CN(C)c1nc(NCc2nc3ccccc3[nH]2)c2ncn(C3CCCC3)c2n1` [Compound 17, N^6-((1H-benzo[d]imidazol-2-yl)methyl)-9-cyclopentyl-N^2,N^2-dimethyl-9H-purine-2,6-diamine], the remaining activity at 10 µM in data set [3] was found to be 34 ± 5%. Besides, in data set [3], the remaining activity at 40 µM was found to be 22 ± 1%. For the same compound, the IC50 in data set [3] amounted to 0.59 ± 0.2 µM; in data set [8], 0.069 ± 0.018 µM. Also, the Ki in [5] is 2.9 ± 0.648 µM; in [6] it was 0.076 ± 0.017 µM; in data set [7], 1.15 ± 0.107 µM.
In the case of `Clc1nc(NCCCc2ccccc2)c2ncn(C3CCCC3)c2n1` [Compound 24, 2-chloro-9-cyclopentyl-N-(3-phenylpropyl)-9H-purin-6-amine], the melting point (in general, the temperature of the solid-liquid transition) lay within 177 to 179 °C. In [3], the remaining activity at 10 µM was found to be 26 ± 6.7%, the remaining activity at 40 µM stood at 11 ± 19% and the IC50 was determined as 0.73 ± 0.1 µM. For the same compound, in data set [5], the Ki worked out at 0.692 ± 0.088 µM. For the same compound, the Ki in [6] was found to be 3.34 ± 0.749 µM. Also, in data set [7], the Ki was 1.27 ± 0.289 µM.
Take `Fc1cccc(-n2cnc3c(NCc4nc5ccc(Cl)cc5[nH]4)nc(N4CCNCC4)nc32)c1` [SR-2890]: the IC50 in data set [1] is 0.004 µM.
Take `c1ccc2[nH]c(CNc3nc(N4CCOCC4)nc4c3ncn4-c3ccsc3)nc2c1` [SR-653234]: the results for the IC50 in [9] and in data set [10] were 0.16 µM and 0.54 µM, respectively.
